# Reference: patent US20090142323A1, “METHODS FOR TREATING A DISORDER BY REGULATING GPRC6A” (priority 2007, published 2009)
# Legend:
# [1] = molecular target: T1, calcium sensing receptor (CASR) (Rattus norvegicus, UniProt P48442); test: phospho-ERK in HEK-293 cells transfected with calcium sensing receptor; format: cell-based; conditions: HEK293 transfected with CASR
# T1 construct: expressed in transfected cells; host or cells: HEK-293
# T1 sequence (P48442 20-1079): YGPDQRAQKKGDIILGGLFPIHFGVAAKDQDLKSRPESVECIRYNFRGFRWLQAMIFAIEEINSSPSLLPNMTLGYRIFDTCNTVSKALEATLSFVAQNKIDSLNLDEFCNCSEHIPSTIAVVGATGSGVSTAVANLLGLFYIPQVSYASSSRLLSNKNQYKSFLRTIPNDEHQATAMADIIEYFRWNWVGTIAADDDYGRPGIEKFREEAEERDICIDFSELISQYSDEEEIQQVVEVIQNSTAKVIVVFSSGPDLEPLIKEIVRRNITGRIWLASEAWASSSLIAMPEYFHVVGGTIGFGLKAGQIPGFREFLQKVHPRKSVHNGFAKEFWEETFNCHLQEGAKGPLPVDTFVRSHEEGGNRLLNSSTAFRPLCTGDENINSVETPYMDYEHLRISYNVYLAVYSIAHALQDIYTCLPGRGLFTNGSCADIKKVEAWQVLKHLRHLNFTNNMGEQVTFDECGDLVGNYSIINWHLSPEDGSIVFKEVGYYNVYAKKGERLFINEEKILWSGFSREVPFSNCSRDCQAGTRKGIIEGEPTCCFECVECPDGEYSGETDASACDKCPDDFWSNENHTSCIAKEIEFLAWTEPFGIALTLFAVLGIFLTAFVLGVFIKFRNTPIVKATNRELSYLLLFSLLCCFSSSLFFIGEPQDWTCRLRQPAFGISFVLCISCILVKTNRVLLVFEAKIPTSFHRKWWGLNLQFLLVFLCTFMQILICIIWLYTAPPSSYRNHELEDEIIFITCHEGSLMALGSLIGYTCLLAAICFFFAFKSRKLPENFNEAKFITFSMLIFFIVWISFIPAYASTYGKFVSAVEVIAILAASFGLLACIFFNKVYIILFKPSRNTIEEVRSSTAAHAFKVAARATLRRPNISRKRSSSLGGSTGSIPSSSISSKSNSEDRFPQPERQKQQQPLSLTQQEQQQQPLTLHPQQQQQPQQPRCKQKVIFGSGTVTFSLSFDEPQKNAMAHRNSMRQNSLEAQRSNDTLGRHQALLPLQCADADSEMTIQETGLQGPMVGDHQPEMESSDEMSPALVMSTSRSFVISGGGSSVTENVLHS
# Procedure: Equal amounts of lysates were subjected to 10% SDS-PAGE, and phospho-ERK1/2 levels were determined by immunoblotting using antiphospho-ERK1/2 mitogen-activated protein kinase antibody (Cell Signaling Technology). […] An anti-peptide antibody was raised in a rabbit against a peptide ([…] (SEQ ID NO: 27)) corresponding to a sequence in the extracellular domain of mouse GPRC6A (in exon 1 of mouse GPRC6A gene) produced by Abgent (San Diego, Calif.). For phospho-ERK, the phospho-ERK1/2 levels were determined by immunoblotting using anti-phospho-ERK1/2 mitogen-activated protein kinase antibody (Cell Signaling Technology). Urinary β2-microglobulin was detected by rabbit polyclonal anti-β2-microglobulin antibody (Abcam Inc.). For aromatase expression analysis, the rabbit polyclonal anti-aromatase antibody (Abcam Inc.) and goat anti-rabbit IgG HRP secondary antibody (Santa Cruz Biotechnology Inc.) were used. Mouse anti-Actin antibody (Santa Cruz Biotechnology Inc.) was used for control protein loading.
# [2] = test system: bone marrow and testes; test: phospho-ERK activity and Egr-1 expression in bone marrow and testes in vivo; set-up: species or system mouse; conditions: 200 mg/kg intraperitoneally
# Procedure: (§1) To establish a linkage between non-genomic effects of androgens and tissue responses in vivo, we examined the impact of loss of GPRC6A on the capacity of testosterone to stimulate phospho-ERK activity and early growth-responsive 1 (Egr-1) expression in bone marrow and testes in vivo (FIGS. 8D and 8E). To accomplish this, we administered testosterone at a dose of 200 MG/KG or vehicle intraperitonealy to wild-type and GPRC6A^−/− male mice.
# as §1, with “(FIG.” for “in vivo (FIGS. 8D and”, “mg/kg” for “MG/KG”, “intraperitoneally” for “intraperitonealy”, “mice. Bone marrow was harvested at 20 and 60 minutes for assessment of ERK phosphorylation and Egr-1 mRNA expression.” for “mice.”
structure (smiles),measurement,setting,value
C[C@]12CC[C@H]3[C@@H](CCC4=CC(=O)CC[C@@]43C)[C@@H]1CC[C@@H]2O [testosterone],phospho-ERK response,[1],did not responded
same,Egr-1 expression in bone marrow and testes,[2]; GPRC6A-/- male mice,markedly attenuated
same,phospho-ERK activity in bone marrow and testes,[2]; GPRC6A-/- male mice,markedly attenuated
same,Egr-1 expression in bone marrow and testes,[2]; wild-type male mice,stimulated
same,phospho-ERK activity in bone marrow and testes,[2]; wild-type male mice,stimulated
